Source: patent publication US20140088069A1, “NOVEL ANTIBACTERIAL COMBINATION THERAPY” (priority 2011, published 2014)

Legend:
Format in all cases: cell-based, Staphylococcus aureus
[1] = tested on: S. aureus (Newman strain); experiment: Checkerboard (FIC) analysis against S. aureus Newman; conditions: antibiotic in combination with ticlopidine; S. aureus (Newman strain)
CA-MRSA USA300 = experiment: Checkerboard (FIC) analysis against CA-MRSA USA300; conditions: for drug-drug interaction with cefuroxime (checkerboard secondary screen): in combination with cefuroxime
Description: Here a matrix of drug concentrations were tested in combinations at the concentrations shown (μg/mL). Greyscale indicates growth—darker is more growth, lighter is less growth. FIC index is a measure of synergy and is calculated as follows: FIC index=FIC (cefuroxime)+FIC (drug compound).
The combination of ticlopidine and cefuroxime was further tested as above against a variety of S. aureus strains as shown in Table 1 below.
FIC index=FIC (β-lactam)+FTC (ticlopidine). […]

MRSA = experiment: Analogues in combination with cefuroxime against MRSA (FIC index)
Description: A series of analogues were synthesized (as shown in Table 5) in which the thienopyridine ring was removed.
These were tested in combination with cefuroxime against MRSA and results are shown below (Table 6).

[2] = antibiotic in combination with ticlopidine, CA-MRSA USA 300, FIC (β-lactam)+FIC (ticlopidine)
[3] = compound in combination with cefuroxime, MRSA (Table 5)
[4] = novel analogue in combination with cefuroxime, MRSA (Table 6)

Compound	FIC index [1]	FIC index (CA-MRSA USA300; [2])	further results
NC(=O)c1cc[n+](CC2=C(C(=O)O)N3C(=O)[C@@H](NC(=O)[C@@H](c4ccccc4)S(=O)(=O)[O-])[C@H]3SC2)cc1 [Cefsulodin]	≦1	≦2	–
CC1=C(C(=O)O)N2C(=O)[C@@H](NC(=O)[C@H](N)C3=CCC=CC3)[C@H]2SC1 [Cephradine]	–	≦2	–
c1ccc2c(c1)CCN(Cc1ccncc1)C2 [Compound 7, 2-Pyridin-4-ylmethyl-1,2,3,4-tetrahydro-isoquinoline]	–	–	FIC index (MRSA; [3]): ≦2
Cc1onc(-c2ccccc2Cl)c1C(=O)N[C@@H]1C(=O)N2[C@@H]1SC(C)(C)[C@@H]2C(=O)O [Cloxacillin]	–	≦0.5	–
COC(=O)C(c1ccccc1C(F)(F)F)N1CCc2ccccc2C1 (stereo not shown) [Compound 21]	–	–	FIC index (MRSA; [3]): ≦0.125
C[C@H]1COc2c(N3CCN(C)CC3)c(F)cc3c(=O)c(C(=O)O)cn1c23 [Levofloxacin]	≦2	–	–
CN[C@H](CC(C)C)C(=O)N[C@H]1C(=O)N[C@@H](CC(N)=O)C(=O)N[C@H]2C(=O)N[C@H]3C(=O)N[C@H](C(=O)N[C@H](C(=O)O)c4cc(O)cc(O)c4-c4cc3ccc4O)[C@H](O)c3ccc(c(Cl)c3)Oc3cc2cc(c3O[C@@H]2O[C@H](CO)[C@@H](O)[C@H](O)[C@H]2O[C@H]2C[C@](C)(N)[C@H](O)[C@H](C)O2)Oc2ccc(cc2Cl)[C@H]1O [Vancomycin]	≦2	–	–
Clc1ccccc1CN1CCc2ccccc2C1 [Compound 3, 2-(2-Chloro-benzyl)-1,2,3,4-tetrahydro-isoquinoline]	–	–	FIC index (MRSA; [3]): ≦0.125
Cn1nnnc1SCC1=C(C(=O)O)N2C(=O)[C@@H](NC(=O)[C@H](O)c3ccccc3)[C@H]2SC1 [Cefamandole]	≦0.75	≦0.63	–
N[C@@H](C(=O)N[C@@H]1C(=O)N2C(C(=O)O)=C(Cl)CS[C@H]12)c1ccccc1 [Cefaclor]	≦1	≦0.5	–
CC(=O)OCC1=C(C(=O)O)N2C(=O)[C@@H](NC(=O)CCC[C@@H](N)C(=O)O)[C@H]2SC1 [Cephalosporin C]	≦0.75	–	–
CN1[C@@H]2CC[C@H]1C[C@@H](OC(c1ccccc1)c1ccccc1)C2 [Benztropine]	–	–	drug-drug interaction with cefuroxime (checkerboard secondary screen) (CA-MRSA USA300): synergistic interactions
O=C(O)c1cn(C2CC2)c2cc(N3CCNCC3)c(F)cc2c1=O [Ciprofloxacin]	≦2	–	–
Tunicamycin	≦0.75	–	–
COc1cccc(OC)c1C(=O)N[C@@H]1C(=O)N2[C@@H]1SC(C)(C)[C@@H]2C(=O)O [Methicillin]	≦1	≦0.63	–
O=C(O)C(c1ccccc1Cl)N1CCc2ccccc2C1 (stereo not shown) [Compound 4-novel, (2-Chloro-phenyl)-(3,4-dihydro-1H-isoquinolin-2-yl)-acetic acid]	–	–	FIC index (MRSA; [4]): ≦2
CCN1CCN(Cc2ccccc2Cl)CC1 [Compound 10, 1-(2-Chloro-benzyl)-4-ethyl-piperazine]	–	–	FIC index (MRSA; [3]): ≦2
CN(C)CCC(c1ccc(Cl)cc1)c1ccccn1 (stereo not shown) [chlorpheniramine]	–	–	drug-drug interaction with cefuroxime (checkerboard secondary screen) (CA-MRSA USA300): synergistic interactions
COC(=O)C(c1ccccc1Cl)N1CCc2ccccc2C1 (stereo not shown) [Compound 18, (2-Chloro-phenyl)-(3,4-dihydro-1H-isoquinolin-2-yl)-acetic acid methyl ester]	–	–	FIC index (MRSA; [3]): ≦0.187
c1ccc(CN2CCc3ccccc3C2)cc1 [Compound 6, 2-Benzyl-1,2,3,4-tetrahydro-isoquinoline]	–	–	FIC index (MRSA; [3]): ≦0.625
NC(=O)C(c1ccccc1C(F)(F)F)N1CCc2ccccc2C1 (stereo not shown) [Compound 22]	–	–	FIC index (MRSA; [3]): ≦1
Clc1cccc(CN2CCc3ccccc3C2)c1 [Compound 4, 2-(3-Chloro-benzyl)-1,2,3,4-tetrahydro-isoquinoline]	–	–	FIC index (MRSA; [3]): ≦2
Cc1onc(-c2ccccc2)c1C(=O)N[C@@H]1C(=O)N2[C@@H]1SC(C)(C)[C@@H]2C(=O)O [Oxacillin]	≦0.63	≦0.5	–
FC(F)(F)c1ccccc1CN1CCc2ccccc2C1 [Compound 17, 2-(2-Trifluoromethyl-benzyl)-1,2,3,4-tetrahydro-isoquinoline]	–	–	FIC index (MRSA; [3]): ≦0.094
Cc1ccccc1CN1CCc2ccccc2C1 [Compound 14, 2-(2-Methyl-benzyl)-1,2,3,4-tetrahydro-isoquinoline]	–	–	FIC index (MRSA; [3]): ≦0.125
CO[C@@]1(NC(=O)Cc2cccs2)C(=O)N2C(C(=O)O)=C(COC(N)=O)CS[C@@H]21 [Cefoxitin]	≦0.75	≦0.5	–
CC[C@H]1OC(=O)[C@H](C)[C@@H](O[C@H]2C[C@@](C)(OC)[C@@H](O)[C@H](C)O2)[C@H](C)[C@@H](O[C@@H]2O[C@H](C)C[C@H](N(C)C)[C@H]2O)[C@](C)(O)C[C@@H](C)C(=O)[C@H](C)[C@@H](O)[C@]1(C)O [Erythromycin]	≦2	–	–

Compound	FIC index [1]	FIC index (CA-MRSA USA300; [2])	further results
C[C@@H](O)[C@H]1C(=O)N2C(C(=O)O)=C(S[C@@H]3CN[C@H](C(=O)N(C)C)C3)[C@H](C)[C@H]12 [Meropenem]	–	≦0.75	–
CC1=C(C(=O)O)N2C(=O)[C@@H](NC(=O)[C@H](N)c3ccc(O)cc3)[C@H]2SC1 [Cefadroxil]	–	≦2	–
Polymyxin	≦0.5	–	–
c1cc2c(s1)CCNC2 [Compound 2, 4,5,6,7-Tetrahydro-thieno[3,2-c]pyridine]	–	–	FIC index (MRSA; [3]): ≦2
N[C@@H]1CONC1=O [D-cycloserine]	≦2	–	–
C[C@@H]1O[C@@H]1P(=O)(O)O [Fosfomycin]	≦0.5	–	–
CCCCCCCCCC(=O)N[C@@H](Cc1c[nH]c2ccccc12)C(=O)N[C@H](CC(N)=O)C(=O)N[C@@H](CC(=O)O)C(=O)N[C@@H]1C(=O)NCC(=O)N[C@@H](CCCN)C(=O)N[C@@H](CC(=O)O)C(=O)N[C@H](C)C(=O)N[C@@H](CC(=O)O)C(=O)NCC(=O)N[C@H](CO)C(=O)N[C@@H]([C@H](C)CC(=O)O)C(=O)N[C@@H](CC(=O)c2ccccc2N)C(=O)O[C@@H]1C [Daptomycin]	≦2	–	–
CC[C@H]1OC(=O)[C@H](C)[C@@H](O[C@H]2C[C@@](C)(OC)[C@@H](O)[C@H](C)O2)[C@H](C)[C@@H](O[C@@H]2O[C@H](C)C[C@H](N(C)C)[C@H]2O)[C@](C)(OC)C[C@@H](C)C(=O)[C@H](C)[C@@H](O)[C@]1(C)O [Clarithromycin]	≦2	–	–
CO/N=C(\C(=O)N[C@@H]1C(=O)N2C(C(=O)O)=C(COC(C)=O)CS[C@H]12)c1csc(N)n1 [Cefotaxime]	–	≦0.5	–
Clc1ccc(CN2CCc3ccccc3C2)cc1 [Compound 5, 2-(4-Chloro-benzyl)-1,2,3,4-tetrahydro-isoquinoline]	–	–	FIC index (MRSA; [3]): ≦2
O=C(O)C(c1ccccc1C(F)(F)F)N1CCc2ccccc2C1 (stereo not shown) [Compound 23]	–	–	FIC index (MRSA; [3]): ≦2
Clc1ccccc1CN1CCCCC1 [Compound 12, 1-(2-Chloro-benzyl)-piperidine]	–	–	FIC index (MRSA; [3]): ≦2
CO[C@@]1(NC(=O)CSCC#N)C(=O)N2C(C(=O)O)=C(CSc3nnnn3C)CS[C@@H]21 [Cefmetazole]	≦0.75	–	–
Clc1ccc2c(c1)CCN(Cc1ccccc1Cl)C2 [Compound 1-novel, 6-Chloro-2-(2-chloro-benzyl)-1,2,3,4-tetrahydro-isoquinoline]	–	–	FIC index (MRSA; [4]): ≦2
NC[C@H]1O[C@H](O[C@H]2[C@H](O)[C@@H](O[C@H]3O[C@H](CO)[C@@H](O)[C@H](N)[C@H]3O)[C@H](N)C[C@@H]2N)[C@H](N)C[C@@H]1O [Tobramycin]	≦2	–	–
CC1=C(C(=O)O)N2C(=O)[C@@H](NC(=O)[C@H](N)c3ccccc3)[C@H]2SC1 [Cephalexin]	≦1	≦0.75	–
CC(C)(O/N=C(\C(=O)N[C@@H]1C(=O)N2C(C(=O)[O-])=C(C[n+]3ccccc3)CS[C@H]12)c1csc(N)n1)C(=O)O [Ceftazidime]	≦1	≦2	–
CC(=O)OCC1=C(C(=O)O)N2C(=O)[C@@H](NC(=O)Cc3cccs3)[C@H]2SC1 [Cephalothin]	–	≦0.5	–
CO/N=C(\C(=O)N[C@@H]1C(=O)N2C(C(=O)O)=C(COC(C)=O)CS[C@H]12)c1csc(N)n1 [Ceftoxamine]	≦1	–	–
CC1(C)S[C@@H]2[C@H](NC(=O)[C@H](N)c3ccccc3)C(=O)N2[C@H]1C(=O)O [Ampicillin]	≦1	≦0.5	–
CCN1CCN(C(=O)N[C@@H](C(=O)N[C@@H]2C(=O)N3[C@@H]2SC(C)(C)[C@@H]3C(=O)O)c2ccccc2)C(=O)C1=O [Piperacillin]	≦0.63	≦0.5	–
CC(=O)Oc1cc2c(s1)CCN(C(C(=O)C1CC1)c1ccccc1F)C2 (racemic) [Prasugrel, (RS)-5-[2-cyclopropyl-1-(2-fluorophenyl)-2-oxoethyl]-4,5,6,7-tetrahydrothieno[3,2-c]pyridin-2-yl acetate]	–	–	MIC (CA-MRSA USA300; Staphylococcus aureus, read-out: MIC thienopyridine): > 128 µg/mL; FIC thienopyridine (CA-MRSA USA300; in the presence of cefuroxime, CA-MRSA USA300 (Table 4)): 0.25; FIC index (CA-MRSA USA300; thienopyridine in combination with cefuroxime, CA-MRSA USA300 (Table 4)): ≦0.50; FIC index (CA-MRSA USA300; thienopyridine in combination with cefuroxime, CA-MRSA USA300 (Table 4), listed as prasugrel): ≤ 0.50
CO/N=C(\C(=O)N[C@@H]1C(=O)N2C(C(=O)O)=CCS[C@H]12)c1csc(N)n1 [Ceftizoxime]	–	≦0.5	–
COc1cc(Cc2cnc(N)nc2N)cc(OC)c1OC [Trimethoprim]	≦2	–	–
CC1(C)S[C@@H]2[C@H](NC(=O)Cc3ccccc3)C(=O)N2[C@H]1C(=O)O [Penicillin G]	–	≦0.5	–
CCOc1ccc2ccccc2c1C(=O)N[C@@H]1C(=O)N2[C@@H]1SC(C)(C)[C@@H]2C(=O)O [Nafcillin]	≦1	≦0.5	–
